Assay results from PMC8786932, “Bicyclic azetidines target acute and chronic stages of Toxoplasma gondii by inhibiting parasite phenylalanyl t-RNA synthetase” (Nature Communications, 2022).
“And” between values parts separate entries of the source, which are not always exact repeats. Equal values may be shown once. Read-outs that look alike come from different tables or passages of the source.

Columns and labels:
[1] = system: T. gondii RHΔΔ TgPheRS[L497I]; experiment: Tachyzoite lytic assay, L497I mutant; type: cell-based, Toxoplasma gondii; settings: for % Parasite Growth: L497I; for EC50: Toxoplasma gondii
Protocol: In vitro cultures of HFF cells containing mature vacuoles were scraped, passaged through 23 g blunt end needles, and filtered using 3 micron filters. Purified parasites were resuspended in 350 μL of cytomix plus[49] and combined in a BTX 4 mm gap cuvette with 30 μL of PCR amplified templates corresponding to mutations of interest and 10 μg of pSAG1:Cas9-GFP U6:sgTgPheRS^[mut] (in 20 μL, 400 μL total volume, see Supplementary Data 1 for sgRNA sequences) prior to electroporation using a BTX ETM 830 electroporator. Amplified templates for TgPheRS mutations were generated from gBlocks (Integrated DNA Technologies, Coralville, IA, USA) that contain a BclI restriction site that replaces the PAM sequence to protect the repair template from being cut by Cas9. At 16 h post-transfection, transgenic parasites expressing pSAG1:Cas9-GFP were sorted on a Sony SH800 FACS sorter directly into 96-well plates. Single clones containing TgPheRS^[mut] were identified by amplifying a ~500 bp PCR fragment around introduced mutation followed by digestion using BclI (New England Biolabs) BclI sensitive clones were expanded and the locus was Sanger sequenced to verify incorporation of each independent mutation. To generate firefly luciferase (FLuc) expressing strains, freshly harvested parasites were combined with 20 μg of pTUB-FLUC DHFR flox plasmid and 10 μg of pSAG1:Cas9-GFP U6:sgUPRT[50] (in 50 μL cytomix plus) and transformed by electroporation as described above. Parasites were allowed to recover overnight followed by sequential selection with pyrimethamine (1.0 μM) and 5-flurodeoxyuracil (FUDR, 10 μM), as described previously. Stable clones were isolated by limiting dilution and a clone from each genetic background selected based on high luciferase activity (Table 1).
Parasite growth on HFF monolayers was monitored using a 96-well plate-based lytic assay modified from a previously described protocol. […]. Freshly harvested parasites (7.5 × 10^4 /well) were added to each well (in 100uL volume) to reach the final concentration range (10 μM to 0.0005 μM, 200 μL/well, 0.1% DMSO). Plates were incubated for 72 h at 37 °C then culture medium was aspirated and monolayers were fixed with 100% ethanol (ETOH) for 5 min at room temperature (RT). After rinsing with water, wells were stained with 0.1% crystal violet solution for 10 min at RT. Plates were rinsed with water, air dried, and absorption quantified on the Cytation 3 multi-mode imager at 570 nm wavelength. % parasite growth was calculated as 100−[(OD value for infected cultures at each concentration of compound/average OD value for no compound and no parasite infection) × 100]. EC50 values were calculated based on the mean of three biological replicates with each replicate containing two technical replicates.

[2] = system: T. gondii RHΔΔ TgPheRS[V262A]; experiment: Tachyzoite lytic assay, V262A mutant; type: cell-based; settings: Toxoplasma gondii
Protocol: In vitro cultures of HFF cells containing mature vacuoles were scraped, passaged through 23 g blunt end needles, and filtered using 3 micron filters. Purified parasites were resuspended in 350 μL of cytomix plus[49] and combined in a BTX 4 mm gap cuvette with 30 μL of PCR amplified templates corresponding to mutations of interest and 10 μg of pSAG1:Cas9-GFP U6:sgTgPheRS^[mut] (in 20 μL, 400 μL total volume, see Supplementary Data 1 for sgRNA sequences) prior to electroporation using a BTX ETM 830 electroporator. Amplified templates for TgPheRS mutations were generated from gBlocks (Integrated DNA Technologies, Coralville, IA, USA) that contain a BclI restriction site that replaces the PAM sequence to protect the repair template from being cut by Cas9. […]
Parasite growth on HFF monolayers was monitored using a 96-well plate-based lytic assay modified from a previously described protocol. […] Plates were rinsed with water, air dried, and absorption quantified on the Cytation 3 multi-mode imager at 570 nm wavelength. % parasite growth was calculated as 100−[(OD value for infected cultures at each concentration of compound/average OD value for no compound and no parasite infection) × 100]. EC50 values were calculated based on the mean of three biological replicates with each replicate containing two technical replicates.

[3] = biological target: T1, recombinant wild-type TgPheRS (Toxoplasma gondii, UniProt A0A125YPN6); experiment: Malachite green aminoacylation enzyme assay, wild-type TgPheRS; type: biochemical; settings: for Tg PheRS enzyme assay raw signal: replicates
T1 sequence (A0A125YPN6 1-525): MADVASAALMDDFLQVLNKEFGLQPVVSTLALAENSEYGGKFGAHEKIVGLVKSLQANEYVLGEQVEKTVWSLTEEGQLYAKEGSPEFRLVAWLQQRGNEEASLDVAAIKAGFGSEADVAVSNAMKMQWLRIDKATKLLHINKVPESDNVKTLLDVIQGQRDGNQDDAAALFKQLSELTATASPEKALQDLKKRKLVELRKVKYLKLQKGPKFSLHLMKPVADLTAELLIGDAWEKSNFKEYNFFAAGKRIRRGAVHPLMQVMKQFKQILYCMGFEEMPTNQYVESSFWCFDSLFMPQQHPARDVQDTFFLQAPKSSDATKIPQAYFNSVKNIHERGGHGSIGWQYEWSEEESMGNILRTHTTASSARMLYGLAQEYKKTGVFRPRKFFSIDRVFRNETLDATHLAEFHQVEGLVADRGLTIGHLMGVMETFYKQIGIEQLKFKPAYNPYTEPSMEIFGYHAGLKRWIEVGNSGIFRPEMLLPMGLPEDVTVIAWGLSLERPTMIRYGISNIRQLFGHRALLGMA
T1 sequence (S8EZ50 1-675 partner): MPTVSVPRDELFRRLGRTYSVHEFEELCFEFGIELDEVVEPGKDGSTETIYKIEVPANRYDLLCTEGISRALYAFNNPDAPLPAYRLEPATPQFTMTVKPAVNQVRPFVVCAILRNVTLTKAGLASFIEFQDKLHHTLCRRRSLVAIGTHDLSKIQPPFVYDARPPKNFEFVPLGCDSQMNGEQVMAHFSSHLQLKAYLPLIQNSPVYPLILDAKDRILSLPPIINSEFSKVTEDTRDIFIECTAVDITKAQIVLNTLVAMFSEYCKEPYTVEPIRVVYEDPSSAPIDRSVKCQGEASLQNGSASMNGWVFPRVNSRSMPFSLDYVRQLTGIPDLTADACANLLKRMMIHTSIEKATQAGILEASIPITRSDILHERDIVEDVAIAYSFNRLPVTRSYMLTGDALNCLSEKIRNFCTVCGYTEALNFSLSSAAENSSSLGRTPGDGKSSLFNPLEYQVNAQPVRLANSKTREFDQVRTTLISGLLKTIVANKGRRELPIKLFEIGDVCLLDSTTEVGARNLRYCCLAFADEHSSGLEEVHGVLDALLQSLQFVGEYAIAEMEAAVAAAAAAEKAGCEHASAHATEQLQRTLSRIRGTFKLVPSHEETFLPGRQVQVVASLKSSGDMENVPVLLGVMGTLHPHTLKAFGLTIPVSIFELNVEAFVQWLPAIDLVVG

[4] = mouse; cited from earlier work
[5] = read-out: EC50 (growth restriction)

COc1ccc(NC(=O)N2CCCCN3[C@H](CN(C)C)[C@H](c4ccc(C#Cc5ccccc5)cc4)[C@@H]3C2)cc1 [BRD7929]
% Parasite Growth ([1]; 0.00152416 uM): 80.35% and 85.68% and 82.9%
% Parasite Growth ([1]; 0.00457247 uM): 85.9% and 86.11% and 77.47%
% Parasite Growth ([1]; 0.01371742 uM): 84.76% and 87.14% and 84.02%
% Parasite Growth ([1]; 0.04115226 uM): 84.55% and 85.22% and 84.57%
% Parasite Growth ([1]; 0.12345679 uM): 86.89% and 87% and 83.23%
% Parasite Growth ([1]; 0.37037037 uM): 70.95% and 85.33% and 85.39%
% Parasite Growth ([1]; 1.11111111 uM): 77.92% and 85.54% and 61.12%
% Parasite Growth ([1]; 3.33333333 uM): 63.14%
% Parasite Growth ([1]; 10 uM): 57.07% and 70.68% and 64.5%
EC50 [1, 5]: 2310 nM
EC50 ([1]; read-out: EC50, L497I): 1170 nM
EC50 ([2]; 72 h, read-out: EC50, V262A): 202 nM
EC50 [2, 5]: 159 nM
IC50 [3]: 31 nM
Tg PheRS enzyme assay raw signal ([3]; BRD7929 0.000001 μM): 0.2010 (2×) and 0.1986
Tg PheRS enzyme assay raw signal ([3]; BRD7929 0.000010 μM): 0.1950 and 0.1940 and 0.1990
Tg PheRS enzyme assay raw signal ([3]; BRD7929 0.000100 μM): 0.1980 and 0.1900 and 0.1990
Tg PheRS enzyme assay raw signal ([3]; BRD7929 0.001000 μM): 0.1940 and 0.1790 and 0.1870
Tg PheRS enzyme assay raw signal ([3]; BRD7929 0.010000 μM): 0.1697 and 0.1750 and 0.1724
Tg PheRS enzyme assay raw signal ([3]; BRD7929 0.100000 μM): 0.1290 and 0.1332 and 0.1400
Tg PheRS enzyme assay raw signal ([3]; BRD7929 1.000000 μM): 0.1100 and 0.1180 and 0.1090
Tg PheRS enzyme assay raw signal ([3]; BRD7929 10.000000 μM): 0.0928 and 0.1144 and 0.1108
Tg PheRS enzyme assay raw signal ([3]; BRD7929 100.000000 μM): 0.1051 and 0.0940 and 0.1066
enzyme assay readout (raw, malachite green, 620 nm) ([3]; WT, BRD7929 100.000000 μM): 0.1051 and 0.0940 and 0.1066
oral bioavailability [4]: 80%
